Test results reported in US12599136B2, “Substituted isophthalic acid diamides and their use as herbicides” (Bayer Aktiengesellschaft, priority 2020, dated 2026).

Legend:
Format in all cases: in vivo
Echinochloa crus-galli [1] = experiment: Pre-emergence herbicidal action against ECHCG; conditions: 80 g/ha; visual score after 3 weeks vs untreated controls
Text: (§1) Seeds of monocotyledonous and dicotyledonous weed plants and crop plants are laid out in sandy loam soil in wood-fiber pots and covered with soil. The compounds of the invention, formulated in the form of wettable powders (WP) or as emulsion concentrates (EC), are then applied to the surface of the covering soil in the form of an aqueous suspension or emulsion at a water application rate equivalent to 600 to 800 l/ha, with addition of 0.2% wetting agent. After the treatment, the pots are placed in a greenhouse and kept under good growth conditions for the trial plants. The damage to the test plants is scored visually after a test period of 3 weeks by comparison with untreated controls (herbicidal activity in percent (%): 100% activity=the plants have died, 0% activity=like control plants). […] The tables below illustrate, in an illustrative manner, the post-emergence herbicidal action of the compounds of the invention, the herbicidal activity being stated in percent.

Alopecurus myosuroides [2] = experiment: Post-emergence herbicidal action against ALOMY
Procedure: (§2) Seeds of monocotyledonous and dicotyledonous weed and crop plants are laid out in sandy loam soil in wood-fiber pots, covered with soil and cultivated in a greenhouse under good growth conditions. 2 to 3 weeks after sowing, the test plants are treated at the one-leaf stage. The compounds of the invention, formulated in the form of wettable powders (WP) or as emulsion concentrates (EC), are then sprayed onto the green parts of the plants in the form of an aqueous suspension or emulsion at a water application rate equivalent to 600 to 800 l/ha, with addition of 0.2% wetting agent. After the test plants have been left to stand in the greenhouse under optimal growth conditions for about 3 weeks, the action of the preparations is assessed visually in comparison to untreated controls (herbicidal action in percent (%): 100% activity=the plants have died, 0% activity=like control plants). […] The tables below illustrate, in an illustrative manner, the post-emergence herbicidal action of the compounds of the invention, the herbicidal activity being stated in percent.

Digitaria sanguinalis = experiment: Pre-emergence herbicidal action against DIGSA
Text: as §1

Setaria viridis [3] = experiment: Post-emergence herbicidal action against SETVI; conditions: visual assessment about 3 weeks after treatment
Procedure: as §2

Abutilon theophrasti [4] = experiment: Pre-emergence herbicidal action against ABUTH; conditions: visual score after 3 weeks vs untreated controls
Text: as §1

Pharbitis purpurea = experiment: Post-emergence herbicidal action against PHBPU; conditions: visual assessment about 3 weeks after treatment
Procedure: as §2

Alopecurus myosuroides [5] = experiment: Pre-emergence herbicidal action against ALOMY; conditions: 80 g/ha; visual score after 3 weeks vs untreated controls
Text: as §1

Polygonum convolvulus = experiment: Pre-emergence herbicidal action against POLCO
Text: as §1

Veronica persica [6] = experiment: Pre-emergence herbicidal action against VERPE; conditions: 80 g/ha
Text: as §1

Viola tricolor [7] = experiment: Pre-emergence herbicidal action against VIOTR
Text: as §1

Abutilon theophrasti [8] = experiment: Post-emergence herbicidal action against ABUTH
Procedure: as §2

Matricaria inodora [9] = experiment: Post-emergence herbicidal action against MATIN; conditions: visual assessment about 3 weeks after treatment
Procedure: as §2

Viola tricolor [10] = experiment: Post-emergence herbicidal action against VIOTR
Procedure: as §2

Amaranthus retroflexus [11] = experiment: Post-emergence herbicidal action against AMARE; conditions: visual assessment about 3 weeks after treatment
Procedure: as §2

Matricaria inodora [12] = experiment: Pre-emergence herbicidal action against MATIN; conditions: visual score after 3 weeks vs untreated controls
Text: as §1

Amaranthus retroflexus [13] = experiment: Pre-emergence herbicidal action against AMARE; conditions: visual score after 3 weeks vs untreated controls
Text: as §1

Veronica persica [14] = experiment: Post-emergence herbicidal action against VERPE; conditions: visual assessment about 3 weeks after treatment
Procedure: as §2

Setaria viridis [15] = experiment: Pre-emergence herbicidal action against SETVI
Text: as §1

Echinochloa crus-galli [16] = experiment: Post-emergence herbicidal action against ECHCG; conditions: visual assessment about 3 weeks after treatment
Procedure: as §2

Avena fatua = experiment: Pre-emergence herbicidal action against AVEFA; conditions: 80 g/ha; visual score after 3 weeks vs untreated controls
Text: as §1

| SMILES | Pre-emergence action against ECHCG (Echinochloa crus-galli [1]) [%] | Post-emergence action against ALOMY (Alopecurus myosuroides [2]; 20 g/ha) [%] | Post-emergence action against SETVI in % (Setaria viridis [3]; 20 g/ha) [%] | Pre-emergence action against ABUTH (Abutilon theophrasti [4]; 20 g/ha) [%] | Pre-emergence action against ABUTH (Abutilon theophrasti [4]; 80 g/ha) [%] | Pre-emergence action against ALOMY (Alopecurus myosuroides [5]) [%] | Pre-emergence action against POLCO (Polygonum convolvulus; 80 g/ha) [%] | Pre-emergence action against VIOTR (Viola tricolor [7]; 80 g/ha) [%] | Post-emergence action against ABUTH (Abutilon theophrasti [8]; 5 g/ha) [%] | Post-emergence action against ABUTH (Abutilon theophrasti [8]; 20 g/ha) [%] | Post-emergence action against MATIN in % (Matricaria inodora [9]; 20 g/ha) [%] | Post-emergence action against VIOTR in % (Viola tricolor [10]; 5 g/ha) [%] | Post-emergence action against VIOTR in % (Viola tricolor [10]; 20 g/ha) [%] | Post-emergence action against AMARE in % (Amaranthus retroflexus [11]; 5 g/ha) [%] | Post-emergence action against AMARE in % (Amaranthus retroflexus [11]; 20 g/ha) [%] | Pre-emergence action against MATIN (Matricaria inodora [12]; 20 g/ha) [%] | Pre-emergence action against MATIN (Matricaria inodora [12]; 80 g/ha) [%] | Pre-emergence action against AMARE (Amaranthus retroflexus [13]; 20 g/ha) [%] | Pre-emergence action against AMARE (Amaranthus retroflexus [13]; 80 g/ha) [%] | Post-emergence action against VERPE in % (Veronica persica [14]; 20 g/ha) [%] | further results |
| --- | --- | --- | --- | --- | --- | --- | --- | --- | --- | --- | --- | --- | --- | --- | --- | --- | --- | --- | --- | --- | --- |
| CN(CC(F)F)C(=O)c1c(C(F)(F)F)ccc(C(=O)Nc2nnnn2C)c1Cl [Example 1-128] | 100 | 80 | 90 | 100 | 100 | 100 | 80 | 100 | 80 | 90 | 80 | 90 | 100 | 100 | 100 | 80 | 90 | 100 | 100 | 90 | Pre-emergence action against DIGSA (Digitaria sanguinalis; 20 g/ha): 100%; Pre-emergence action against DIGSA (Digitaria sanguinalis; 80 g/ha): 100%; Post-emergence action against PHBPU in % (Pharbitis purpurea; 20 g/ha): 90%; Pre-emergence action against POLCO (Polygonum convolvulus; 20 g/ha): 80%; Pre-emergence action against VERPE (Veronica persica [6]): 100%; Pre-emergence action against VIOTR (Viola tricolor [7]; 20 g/ha): 100%; Pre-emergence action against SETVI (Setaria viridis [15]; 20 g/ha): 90%; Pre-emergence action against SETVI (Setaria viridis [15]; 80 g/ha): 100% |
| CN(C(=O)c1c(C(F)F)ccc(C(=O)Nc2nnnn2C)c1Cl)C1CC1 [Example 1-156] | 90 | 90 | 90 | 100 | 100 | 100 | 80 | 100 | 90 | 90 | 90 | 90 | 90 | 100 | 100 | 90 | 100 | 100 | 100 | 80 | Post-emergence action against ECHCG in % (Echinochloa crus-galli [16]; 5 g/ha): 90%; Post-emergence action against ECHCG in % (Echinochloa crus-galli [16]; 20 g/ha): 90%; Post-emergence action against ALOMY (Alopecurus myosuroides [2]; 5 g/ha): 80%; Post-emergence action against SETVI in % (Setaria viridis [3]; 5 g/ha): 90%; Pre-emergence action against AVEFA (Avena fatua): 80%; Post-emergence action against PHBPU in % (Pharbitis purpurea; 5 g/ha): 80%; Post-emergence action against PHBPU in % (Pharbitis purpurea; 20 g/ha): 90%; Pre-emergence action against VERPE (Veronica persica [6]): 90%; Post-emergence action against MATIN in % (Matricaria inodora [9]; 5 g/ha): 80%; Post-emergence action against VERPE in % (Veronica persica [14]; 5 g/ha): 80%; Pre-emergence action against SETVI (Setaria viridis [15]; 80 g/ha): 100% |
| CCN(C)C(=O)c1c(C(F)F)ccc(C(=O)Nc2nnnn2CC)c1C [Example 2-51] | – | 90 | 90 | 100 | 100 | 100 | 90 | 80 | 90 | 90 | 80 | 90 | 90 | 90 | 100 | 90 | 100 | 90 | 90 | 90 | Post-emergence action against ECHCG in % (Echinochloa crus-galli [16]; 20 g/ha): 90%; Post-emergence action against ALOMY (Alopecurus myosuroides [2]; 5 g/ha): 80%; Post-emergence action against SETVI in % (Setaria viridis [3]; 5 g/ha): 80%; Pre-emergence action against AVEFA (Avena fatua): 80% |
